Source: publication PMC4912218, “Targeted metabolomics of Gammarus pulex following controlled exposures to selected pharmaceuticals in water” (The Science of the Total Environment, 2016)

Tested on: Gammarus pulex
Experiment: Targeted metabolite profiling (LC-HRMS) of G. pulex after exposure at NOAEL and LOAEL
Format: in vivo
Experimental: Approximately 100 specimens were introduced in a tank containing 1 L of AFW (control), 1 L of AFW spiked with C1 and 1 L of AFW with C2. At three different times (2, 6 and 24 h), 4 replicates of live G. pulex (a pool of 6–7 animals for each replicate) were collected, frozen on dry ice and then stored at − 80 °C before metabolite profiling was performed.
Quantification of pharmaceutical concentrations in G. pulex at the 24 h exposure interval was performed. Separate exposures were set up in triplicate in beakers containing 200 mL of exposure solution (AFW spiked with the respective C1 pharmaceutical dose) and 20 organisms. At 24 h, animals were immediately rinsed with ultra-pure water and then frozen at − 20 °C for 24 h. […] Prior to extraction, frozen G. pulex samples were lyophilised at − 50 °C under vacuum for 48 h and milled in an agate mortar to a fine powder. For each analysis, 20 mg of a lyophilised composite sample were transferred to 2 mL polypropylene tubes (Eppendorf®, Hamburg, Germany), for solid-liquid extraction (SLE). […] Then, samples were shaken for 25 min on a vibration plate (IKA® KS 260 basic) and centrifuged at 14,000 rpm for 25 min at 0 °C. Finally, the supernatant was transferred to a chromatographic vial by using a […] syringe filter (Whatman, GE Healthcare Life Sciences, Buckinghamshire, UK). All samples were stored at − 80 °C until LC-HRMS analysis.
Briefly, 50 mg of lyophilised G. pulex were extracted in 5 mL of acetonitrile and pre-concentrated on Oasis HLB SPE cartridges (6 mL, 200 mg sorbent). The extract was eluted, dried-down and reconstituted in starting LC mobile phase. […] Organic acids, nucleosides, nucleotides, sugars and AAs were measured using LC–HRMS. An Exactive™ mass spectrometer equipped with heated electrospray ionization (H-ESI) source was used (Thermo Fisher Scientific, Bremen, Germany). The system was equipped with a HTC PAL autosampler and a Surveyor MS Plus pump. A TSK Gel-Amide 80 column (2 × 250 mm, 5 μm) for analyte separation was purchased from Sigma Aldrich. Mobile phases were binary mixtures of acetonitrile (A) and 5 mM ammonium acetate (pH 5) in HPLC-grade water (B). […] The flow rate was set at 150 μL min^− 1 and the injection volume was 5 μL. […] Full scan acquisition over a mass range of 80–800 Da was performed at 70,000 full width at half maximum (FWHM) and spray voltage at 3.00 kV, capillary voltage at 30 V, skimmer voltage at 28 V and tube lens voltage at 130 V were used. A sheath gas flow rate of 45 arbitrary units (au), an auxiliary gas flow rate of 10 au and a capillary temperature at 300 °C were selected.
Here, pharmaceutical residue quantification in exposed G. pulex was performed by a 3-point matrix-matched calibration curve. […] The algal amino acid mixture-^13C,^15N (see Table 1) was used as internal standard (IS) for extraction and analytical control. L-ornithine hydrochloride, inosine, thymidine, taurine, 1.7-dimethylxanthine and (−)-riboflavin were quantified using either ^13C,^15N-proline or ^13C,^15N-tyrosine as the internal standard. The remaining 15 compounds were quantified using external calibration and the target compound itself was used as external standard. […] The method detection limit (MDL) was calculated following the same procedure, using spiked lyophilised G. pulex samples at a concentration of 1 μg g^− 1. Intra-assay variation was assessed using five consecutive injections of 5 ng μL^− 1 standard solution, and inter-assay variation was determined by measuring the same standard solution on four different days. […] Recovery studies were performed in triplicate, using lyophilised G. pulex samples spiked at 1 μg g^− 1 with the metabolites mixture and the algal amino acid mixture-^13C, ^15N.

## Oc1cc(Cl)ccc1Oc1ccc(Cl)cc1Cl [Triclosan]
2h, C1= 0.1 mg/L
  (-)-Riboflavin concentration in G. pulex: 2.6 ± 0.7 µg/g
  ADP concentration in G. pulex: 28.6 ± 2 µg/g
  Cytidine concentration in G. pulex: 34 ± 22 µg/g
  Hypoxanthine concentration in G. pulex: 123 ± 4 µg/g
  Inosine concentration in G. pulex: 14808 ± 1341 µg/g
  L-2-amino-n-butyric concentration in G. pulex: 15.1 ± 3 µg/g
  L-(-)-Proline concentration in G. pulex: 499 ± 11 µg/g
  L-Alanine concentration in G. pulex: 999 ± 2 µg/g
  L-Citrulline concentration in G. pulex: 9.7 ± 0.4 µg/g
  L-Isoleucine concentration in G. pulex: 2067 ± 110 µg/g
  L-Leucine concentration in G. pulex: 443 ± 1 µg/g
  L-Methionine concentration in G. pulex: 5.4 ± 0.6 µg/g
  L-Phenylalanine concentration in G. pulex: 340 ± 28 µg/g
  L-Serine concentration in G. pulex: 158 ± 7 µg/g
  L-Threonine concentration in G. pulex: 740 ± 6 µg/g
  L-Tryptophan concentration in G. pulex: 74 ± 20 µg/g
  L-Tyrosine concentration in G. pulex: 247 ± 8 µg/g
  L-Valine concentration in G. pulex: 500 ± 1 µg/g
  L-aspartic acid concentration in G. pulex: 62.6 ± 3 µg/g
  NADH concentration in G. pulex: 7.11 ± 0.1 µg/g
  Taurine concentration in G. pulex: 7300 ± 168 µg/g
  Thymidine concentration in G. pulex: 2918 ± 603 µg/g
  Trehalose concentration in G. pulex: 197 ± 1 µg/g
  Uridine concentration in G. pulex: 699 ± 21 µg/g
2h, C2= 0.3 mg/L
  (-)-Riboflavin concentration in G. pulex: 2.4 ± 0.5 µg/g
  ADP concentration in G. pulex: 30.5 ± 0.2 µg/g
  Cytidine concentration in G. pulex: 15 ± 6 µg/g
  Hypoxanthine concentration in G. pulex: 74 ± 22 µg/g
  Inosine concentration in G. pulex: 20640 ± 179 µg/g
  L-2-amino-n-butyric concentration in G. pulex: 17.0 ± 2 µg/g
  L-(-)-Proline concentration in G. pulex: 313 ± 1 µg/g
  L-Alanine concentration in G. pulex: 827 ± 10 µg/g
  L-Citrulline concentration in G. pulex: 14.6 ± 0.4 µg/g
  L-Isoleucine concentration in G. pulex: 1140 ± 38 µg/g
  L-Leucine concentration in G. pulex: 361 ± 17 µg/g
  L-Methionine concentration in G. pulex: 3.8 ± 0.6 µg/g
  L-Phenylalanine concentration in G. pulex: 200 ± 15 µg/g
  L-Serine concentration in G. pulex: 158 ± 7 µg/g
  L-Threonine concentration in G. pulex: 530 ± 7 µg/g
  L-Tryptophan concentration in G. pulex: 142 ± 7 µg/g
  L-Tyrosine concentration in G. pulex: 216 ± 5 µg/g
  L-Valine concentration in G. pulex: 268 ± 1 µg/g
  L-aspartic acid concentration in G. pulex: 60.5 ± 3 µg/g
  NADH concentration in G. pulex: 9.3 ± 0.2 µg/g
  Taurine concentration in G. pulex: 7645 ± 212 µg/g
  Thymidine concentration in G. pulex: 639 ± 140 µg/g
  Trehalose concentration in G. pulex: 272 ± 10 µg/g
  Uridine concentration in G. pulex: 506 ± 66 µg/g
6h, C1= 0.1 mg/L
  (-)-Riboflavin concentration in G. pulex: 3.4 ± 3 µg/g
  ADP concentration in G. pulex: 18.6 ± 3 µg/g
  Cytidine concentration in G. pulex: 66 ± 21 µg/g
  Hypoxanthine concentration in G. pulex: 154 ± 27 µg/g
  Inosine concentration in G. pulex: 18116 ± 26 µg/g
  L-2-amino-n-butyric concentration in G. pulex: 21.1 ± 4 µg/g
  L-(-)-Proline concentration in G. pulex: 462 ± 5 µg/g
  L-Alanine concentration in G. pulex: 1119 ± 48 µg/g
  L-Citrulline concentration in G. pulex: 9.0 ± 0.9 µg/g
  L-Isoleucine concentration in G. pulex: 2685 ± 88 µg/g
  L-Leucine concentration in G. pulex: 459 ± 4 µg/g
  L-Methionine concentration in G. pulex: 5.0 ± 0.5 µg/g
  L-Phenylalanine concentration in G. pulex: 417 ± 5 µg/g
  L-Serine concentration in G. pulex: 179 ± 13 µg/g
  L-Threonine concentration in G. pulex: 787 ± 22 µg/g
  L-Tryptophan concentration in G. pulex: 97 ± 16 µg/g
  L-Tyrosine concentration in G. pulex: 301 ± 1 µg/g
  L-Valine concentration in G. pulex: 601 ± 9 µg/g
  L-aspartic acid concentration in G. pulex: 43.2 ± 2 µg/g
  NADH concentration in G. pulex: 7.7 ± 1 µg/g
  Taurine concentration in G. pulex: 10516 ± 434 µg/g
  Thymidine concentration in G. pulex: 3697 ± 180 µg/g
  Trehalose concentration in G. pulex: 259 ± 8 µg/g
  Uridine concentration in G. pulex: 723 ± 21 µg/g
6h, C2= 0.3 mg/L
  (-)-Riboflavin concentration in G. pulex: 2.6 ± 0.3 µg/g
  ADP concentration in G. pulex: 28.2 ± 0.3 µg/g
  Cytidine concentration in G. pulex: 19 ± 7 µg/g
  Hypoxanthine concentration in G. pulex: 74 ± 18 µg/g
  Inosine concentration in G. pulex: 23098 ± 627 µg/g
  L-2-amino-n-butyric concentration in G. pulex: 19.8 ± 2 µg/g
  L-(-)-Proline concentration in G. pulex: 246 ± 4 µg/g
  L-Alanine concentration in G. pulex: 784 ± 31 µg/g
  L-Citrulline concentration in G. pulex: 12.3 ± 1 µg/g
  L-Isoleucine concentration in G. pulex: 1561 ± 147 µg/g
  L-Leucine concentration in G. pulex: 353 ± 4 µg/g
  L-Methionine concentration in G. pulex: 4.6 ± 0.8 µg/g
  L-Phenylalanine concentration in G. pulex: 233 ± 5 µg/g
  L-Serine concentration in G. pulex: 168 ± 2 µg/g
  L-Threonine concentration in G. pulex: 486 ± 8 µg/g
  L-Tryptophan concentration in G. pulex: 134 ± 10 µg/g
  L-Tyrosine concentration in G. pulex: 234 ± 2 µg/g
  L-Valine concentration in G. pulex: 299 ± 18 µg/g
  L-aspartic acid concentration in G. pulex: 36.1 ± 6 µg/g
  NADH concentration in G. pulex: 8.1 ± 0.8 µg/g
  Taurine concentration in G. pulex: 8484 ± 60 µg/g
  Thymidine concentration in G. pulex: 1163 ± 130 µg/g
  Trehalose concentration in G. pulex: 251 ± 4 µg/g
  Uridine concentration in G. pulex: 533 ± 28 µg/g
24h, C1= 0.1 mg/L
  (-)-Riboflavin concentration in G. pulex: 2.4 ± 2 µg/g
  ADP concentration in G. pulex: 18.7 ± 1 µg/g
  Cytidine concentration in G. pulex: 19 ± 3 µg/g
  Hypoxanthine concentration in G. pulex: 95 ± 27 µg/g
  Inosine concentration in G. pulex: 18957 ± 5084 µg/g
  L-2-amino-n-butyric concentration in G. pulex: 16.8 ± 5 µg/g
  L-(-)-Proline concentration in G. pulex: 293 ± 13 µg/g
  L-Alanine concentration in G. pulex: 810 ± 110 µg/g
  L-Citrulline concentration in G. pulex: 8.3 ± 0.5 µg/g
  L-Isoleucine concentration in G. pulex: 1743 ± 224 µg/g
  L-Leucine concentration in G. pulex: 376 ± 13 µg/g
  L-Methionine concentration in G. pulex: 7.0 ± 0.3 µg/g
  L-Phenylalanine concentration in G. pulex: 260 ± 6 µg/g
  L-Serine concentration in G. pulex: 120 ± 12 µg/g
  L-Threonine concentration in G. pulex: 600 ± 20 µg/g
  L-Tryptophan concentration in G. pulex: 72 ± 8 µg/g
  L-Tyrosine concentration in G. pulex: 307 ± 4 µg/g
  L-Valine concentration in G. pulex: 398 ± 17 µg/g
  L-aspartic acid concentration in G. pulex: 82.5 ± 26 µg/g
  NADH concentration in G. pulex: 7.7 ± 0.1 µg/g
  Taurine concentration in G. pulex: 12433 ± 2122 µg/g
  Thymidine concentration in G. pulex: 1718 ± 19 µg/g
  Trehalose concentration in G. pulex: 251 ± 22 µg/g
  Uridine concentration in G. pulex: 644 ± 77 µg/g
24h, C2= 0.3 mg/L
  (-)-Riboflavin concentration in G. pulex: 2.6 ± 0.8 µg/g
  ADP concentration in G. pulex: 29.3 ± 0.8 µg/g
  Cytidine concentration in G. pulex: 16 ± 3 µg/g
  Hypoxanthine concentration in G. pulex: 53 ± 10 µg/g
  Inosine concentration in G. pulex: 36017 ± 80 µg/g
  L-2-amino-n-butyric concentration in G. pulex: 21.5 ± 2 µg/g
  L-(-)-Proline concentration in G. pulex: 207 ± 3 µg/g
  L-Alanine concentration in G. pulex: 673 ± 17 µg/g
  L-Citrulline concentration in G. pulex: 13.8 ± 2 µg/g
  L-Isoleucine concentration in G. pulex: 1164 ± 39 µg/g
  L-Leucine concentration in G. pulex: 299 ± 0.7 µg/g
  L-Methionine concentration in G. pulex: 3.1 ± 0.9 µg/g
  L-Phenylalanine concentration in G. pulex: 134 ± 0.5 µg/g
  L-Serine concentration in G. pulex: 167 ± 15 µg/g
  L-Threonine concentration in G. pulex: 440 ± 11 µg/g
  L-Tryptophan concentration in G. pulex: 115 ± 8 µg/g
  L-Tyrosine concentration in G. pulex: 224 ± 1 µg/g
  L-Valine concentration in G. pulex: 250 ± 3 µg/g
  L-aspartic acid concentration in G. pulex: 33.9 ± 11 µg/g
  NADH concentration in G. pulex: 9.9 ± 0.3 µg/g
  Taurine concentration in G. pulex: 8468 ± 142 µg/g
  Thymidine concentration in G. pulex: 396 ± 12 µg/g
  Trehalose concentration in G. pulex: 378 ± 17 µg/g
  Uridine concentration in G. pulex: 574 ± 15 µg/g
